According to paper PMC12647759 (Scientific Reports, 2025):
Values joined by “and” are separate entries in the source; they are usually repeats but may differ in a detail not shown here. Equal entries are not always repeated.

How the values were obtained:
human PLCγ1 = target: T1, human PLCγ1 (Homo sapiens, UniProt P19174); test: In vitro PLC assay using fluorogenic substrate Compound 1, PLCγ1; type: biochemical; details: for IC50: purified PLCγ1, fluorogenic substrate Compound 1, read-out: IC50, inhibition of PLCγ1 (hydrolysis of Compound 1)
T1 construct: expressing the full-length polypeptides of human PLCε, PLCβ4, PLCδ1 and PLCγ1 as FLAG fusions; made in house; host or cells: Expi293F cells
T1 sequence (P19174 1-1290): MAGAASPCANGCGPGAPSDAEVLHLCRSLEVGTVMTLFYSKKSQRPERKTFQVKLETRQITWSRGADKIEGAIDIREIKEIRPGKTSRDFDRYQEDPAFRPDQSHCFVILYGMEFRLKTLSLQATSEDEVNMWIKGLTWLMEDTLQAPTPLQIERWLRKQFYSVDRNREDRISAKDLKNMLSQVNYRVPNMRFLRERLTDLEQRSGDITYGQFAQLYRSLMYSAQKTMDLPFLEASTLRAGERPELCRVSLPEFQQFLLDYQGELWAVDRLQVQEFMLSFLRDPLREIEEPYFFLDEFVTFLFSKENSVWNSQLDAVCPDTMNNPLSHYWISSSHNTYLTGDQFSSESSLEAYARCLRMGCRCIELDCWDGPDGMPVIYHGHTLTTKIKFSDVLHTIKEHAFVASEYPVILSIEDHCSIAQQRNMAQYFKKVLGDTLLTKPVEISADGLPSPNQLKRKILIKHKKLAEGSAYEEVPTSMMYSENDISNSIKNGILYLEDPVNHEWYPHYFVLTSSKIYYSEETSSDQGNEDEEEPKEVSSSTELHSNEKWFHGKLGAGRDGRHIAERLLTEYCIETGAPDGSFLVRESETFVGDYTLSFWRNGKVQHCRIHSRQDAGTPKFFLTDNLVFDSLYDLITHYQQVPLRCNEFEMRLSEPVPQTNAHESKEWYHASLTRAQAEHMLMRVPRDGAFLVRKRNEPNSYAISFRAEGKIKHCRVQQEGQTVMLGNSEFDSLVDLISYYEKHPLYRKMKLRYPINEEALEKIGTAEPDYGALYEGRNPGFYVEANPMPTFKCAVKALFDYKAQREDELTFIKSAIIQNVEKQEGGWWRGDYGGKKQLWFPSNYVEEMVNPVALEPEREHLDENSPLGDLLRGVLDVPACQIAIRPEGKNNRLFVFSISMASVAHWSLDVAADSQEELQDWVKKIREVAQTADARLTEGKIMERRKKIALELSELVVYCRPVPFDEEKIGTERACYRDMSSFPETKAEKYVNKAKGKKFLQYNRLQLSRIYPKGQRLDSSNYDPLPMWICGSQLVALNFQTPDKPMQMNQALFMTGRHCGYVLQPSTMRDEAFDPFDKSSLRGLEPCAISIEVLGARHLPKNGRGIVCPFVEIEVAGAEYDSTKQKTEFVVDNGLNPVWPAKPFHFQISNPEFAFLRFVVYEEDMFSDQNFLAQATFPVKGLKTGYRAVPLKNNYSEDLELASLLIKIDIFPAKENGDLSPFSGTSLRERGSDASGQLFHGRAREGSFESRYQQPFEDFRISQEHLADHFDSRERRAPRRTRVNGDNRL
Description: (§1) Ten µl of 2 × substrate solutions (50 mM HEPES pH7.2, 200 mM NaCl, 0.2 mM CaCl2, 0.4 mM DTT, 0.4 µM EDTA, 0.02% gelatin, 0.2% sodium cholate and 60 µM Compound 1) were added to each well of a 384-well plate (CONING #3573) containing 10 µl of purified PLCε (120 ng) and incubated with shaking at 30 °C for 3 h. After terminating the reaction by the addition of 2 µl of 5 mM EDTA, the fluorescence emission was measured at 520 nm with the excitation at 485 nm by a microplate reader (POLARstar Omega-25). For measuring inhibition by compounds for HTS, the reactions were conducted at RIKEN Center for Sustainable Resource Science (CSRS) as described above except that 5 µl of compound solution and 5 µl of purified PLCe (120 ng) were added to each well. Solution dispensing and fluorescence detection were conducted by using an automated dispenser (EDR-384, Biotec) and a hybrid multi-mode microplate reader (Synergy H4, Biotec), respectively. For determination of the IC50 values for ZPT and Zn^2+, the EDTA concentration was reduced to one-tenth to avoid its zinc-chelating effect. For assay of the other PLC classes, the reactions were performed similarly except that PLCβ4 (5 ng), PLCδ1 (0.1 ng) or PLCγ1 (0.3 ng) was used instead of PLCε.

human PLCδ1 = target: T2, human PLCδ1 (Homo sapiens, UniProt P51178); test: In vitro PLC assay using fluorogenic substrate Compound 1, PLCδ1; type: biochemical; details: for IC50: purified PLCδ1, fluorogenic substrate Compound 1, read-out: IC50, inhibition of PLCδ1 (hydrolysis of Compound 1)
T2 construct: expressing the full-length polypeptides of human PLCε, PLCβ4, PLCδ1 and PLCγ1 as FLAG fusions; made in house; host or cells: Expi293F cells
T2 sequence (P51178 1-756): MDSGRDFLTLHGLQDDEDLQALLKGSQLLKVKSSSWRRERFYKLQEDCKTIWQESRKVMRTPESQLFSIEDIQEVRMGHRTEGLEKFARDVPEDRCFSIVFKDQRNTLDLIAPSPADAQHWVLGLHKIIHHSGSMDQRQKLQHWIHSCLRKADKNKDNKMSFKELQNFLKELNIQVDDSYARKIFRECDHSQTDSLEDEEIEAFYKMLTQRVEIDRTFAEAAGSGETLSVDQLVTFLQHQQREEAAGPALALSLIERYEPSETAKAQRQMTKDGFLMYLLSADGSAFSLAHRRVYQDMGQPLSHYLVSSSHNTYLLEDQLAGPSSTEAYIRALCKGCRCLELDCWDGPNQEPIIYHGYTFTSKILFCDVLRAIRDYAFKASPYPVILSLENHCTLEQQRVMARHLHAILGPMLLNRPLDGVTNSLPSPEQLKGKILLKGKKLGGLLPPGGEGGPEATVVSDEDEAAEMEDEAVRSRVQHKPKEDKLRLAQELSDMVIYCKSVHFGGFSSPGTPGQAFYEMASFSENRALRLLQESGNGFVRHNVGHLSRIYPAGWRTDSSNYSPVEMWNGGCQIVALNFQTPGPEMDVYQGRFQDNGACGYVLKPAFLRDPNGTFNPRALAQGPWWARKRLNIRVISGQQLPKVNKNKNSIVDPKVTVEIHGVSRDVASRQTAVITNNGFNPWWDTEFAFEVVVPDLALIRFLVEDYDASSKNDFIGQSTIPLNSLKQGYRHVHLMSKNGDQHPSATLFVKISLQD
Description: as §1

[1] = Compound 1 as substrate, varying concentrations

IC50 (human PLCγ1) [µM]	IC50 (human PLCδ1)	Compound	inhibitory activity toward PLCγ (human PLCγ1; [1])	inhibitory activity toward PLCδ (human PLCδ1; [1])
–	–	O=S(=O)([O-])[O-].[Zn+2] [ZnSO4]	without exhibiting any noticeable inhibitory activities	without exhibiting any noticeable inhibitory activities
1.8	7.3 µM	COc1ccc2c(c[n+](C)c3c4cc5c(cc4ccc23)OCO5)c1OC [chelerythrine]	–	–
8.7	0.4 µM	CCCCCCOc1ccc2c(c1)Oc1cc(OP(=O)(O)O[C@H]3[C@H](O)[C@@H](O)[C@H](OP(=O)(O)O)[C@@H](O)[C@H]3O)ccc1C21OC(=O)c2ccccc21 (some centres unmarked) [compound 1]	–	–

Compound	IC50 (human PLCγ1) [µM]	IC50 (human PLCδ1)	inhibitory activity toward PLCγ (human PLCγ1; [1])	inhibitory activity toward PLCδ (human PLCδ1; [1])
C[n+]1cc2c3c(ccc2c2ccc4cc5c(cc4c21)OCO5)OCO3 [Sanguinarine, sanguinarine]	1.6	48 µM and 47.8 µM	–	–
